# Read-outs that look alike come from different tables or passages of the source.
# Key:
# [1] = system: dentate gyrus of organotypic slices; experiment: Spontaneous interictal-like activity, extracellular field recordings in pilocarpine-treated organotypic hippocampal slice cultures; assay type: cell-based, mouse
# Procedure: (§1) Hippocampal/entorhinal cortex slices (350 μm) were prepared from pre-genotyped GluK2−/− and WT mice (P9-10, FVB/N background) using a McIlwain tissue chopper. Slices were placed on mesh inserts (Millipore # PICMORG50) inside culture dishes containing 1 ml of the following medium: MEM 50%, HS 25%, HBSS 25%, HEPES 15 mM glucose 6.5 mg/ml and insulin 0.1 mg/ml. Culture medium was changed every 2-3 days and slices maintained in an incubator at 37° C./5% CO2. Pilocarpine (0.5 μM) was added to the medium at 5 D.I.V and removed at 7 D.I.V; slices were utilized for experiments from 9 D.I.V.
# Cultured or acute slices were individually transferred to a recording chamber maintained at 30-32° C. and continuously perfused (2 ml/min) with oxygenated normal or adapted ACSF containing 5 μM gabazine. Local field potentials were made in the granule cell layer of the DG with glass electrodes (2-3 MΩ; filled with normal ACSF) using a DAM-80 amplifier (low filter, 1 Hz; […], 3 KHz; World Precision Instruments, Sarasota, Fla.). For evoked synaptic transmission, electrical stimulation was performed with a bipolar NiCh electrode (#762000, AM systems). Whole-cell voltage-clamp recordings of DGCs were made using tight-seal electrodes (5-8 MΩ) filled with an internal solution containing the following (in mM): 135 gluconic acid, 135 CsOH, 10 MgCl2, 0.1 CaCl2, 1 EGTA, 10 HEPES, 2 MgATP, 0.4 NaGTP, and 0.5% biocytin, pH 7.25. We used a Multiclamp 700B amplifier (Molecular Devices): data were filtered at 2 kHz, digitized (20 kHz) with a Digidata 1440A (Molecular Devices) to a PC, and acquired using Clampex 10.1 software (PClamp, Molecular Devices). Signals were analyzed off-line using Clampfit 9.2 (PClamp) and MiniAnalysis 6.0.1 (Synaptosoft, Decatur, Ga.). In organotypic slices, spontaneous EPSCs were recorded at the reversal potential for GABAergic currents (Vh=−70 mV). To characterize the nature and kinetic properties of fast and slow events, miniature EPSCs (mEPSCs) evoked in Sr2+ conditions (external Ca2+ was substituted with 1.2 mM Sr2+) were recorded in DGCs from GluK2−/− and WT slices. Electrical stimulation was made in the molecular layer in the continued presence of 5 μM gabazine and 40 μM D-APV; asynchronous mEPSCs were measured during the 300 ms period after the stimulus artifact. […] In cultured slices, visual representation of time-frequency analysis of local field potentials was performed using Autosignal software (Seasolve 1.7). In brief, field activity was highpass-filtered (>100 Hz) and time-frequency analysis performed using a continuous wavelet (Morlet) that reported integrated power (time-integral-squared amplitude, TISA) across time. Filtered traces were also analyzed by Fourier analysis (Hamming) using Clampfit 9.2. In acute hippocampal slices, intensity of antidromically-evoked bursts was quantified using coastline index (Epsztein et al., 2005).
# The role of KARs in spontaneous epileptiform activity was then tested using extracellular field recordings in cultured slices. Recordings were performed in 5 mM K+-containing ACSF and in the presence of 5 μM gabazine in order to enhance neuronal excitability and to reliably record stereotyped spontaneous interictal-like activity (Berdichevsky et al., 2012).
# KARs = molecular target: T1, KARs (Mus musculus, UniProt P39087+Q61626); assay type: cell-based
# T1 construct: from tissue; host or cells: dentate granule cells in pilocarpine-treated organotypic hippocampal/entorhinal slice cultures from WT mice (FVB/N)
# Procedure: as §1
# Cultured or acute slices were individually transferred to a recording chamber maintained at 30-32° C. and continuously perfused (2 ml/min) with oxygenated normal or adapted ACSF containing 5 μM gabazine. Local field potentials were made in the granule cell layer of the DG with glass electrodes (2-3 MΩ; filled with normal ACSF) using a DAM-80 amplifier (low filter, 1 Hz; […], 3 KHz; World Precision Instruments, Sarasota, Fla.). For evoked synaptic transmission, electrical stimulation was performed with a bipolar NiCh electrode (#762000, AM systems). […] Signals were analyzed off-line using Clampfit 9.2 (PClamp) and MiniAnalysis 6.0.1 (Synaptosoft, Decatur, Ga.). In organotypic slices, spontaneous EPSCs were recorded at the reversal potential for GABAergic currents (Vh=−70 mV). To characterize the nature and kinetic properties of fast and slow events, miniature EPSCs (mEPSCs) evoked in Sr2+ conditions (external Ca2+ was substituted with 1.2 mM Sr2+) were recorded in DGCs from GluK2−/− and WT slices. Electrical stimulation was made in the molecular layer in the continued presence of 5 μM gabazine and 40 μM D-APV; asynchronous mEPSCs were measured during the 300 ms period after the stimulus artifact. […] Filtered traces were also analyzed by Fourier analysis (Hamming) using Clampfit 9.2. In acute hippocampal slices, intensity of antidromically-evoked bursts was quantified using coastline index (Epsztein et al., 2005).
# AMPARs = experiment: Remaining fast (AMPAR-mediated) EPSCs in dentate granule cells of GluK2-/- organotypic slices; assay type: cell-based, mouse; conditions: 30 μM, data not shown
# Procedure: as §1
# Cultured or acute slices were individually transferred to a recording chamber maintained at 30-32° C. and continuously perfused (2 ml/min) with oxygenated normal or adapted ACSF containing 5 μM gabazine. […] Signals were analyzed off-line using Clampfit 9.2 (PClamp) and MiniAnalysis 6.0.1 (Synaptosoft, Decatur, Ga.). In organotypic slices, spontaneous EPSCs were recorded at the reversal potential for GABAergic currents (Vh=−70 mV). To characterize the nature and kinetic properties of fast and slow events, miniature EPSCs (mEPSCs) evoked in Sr2+ conditions (external Ca2+ was substituted with 1.2 mM Sr2+) were recorded in DGCs from GluK2−/− and WT slices. […] Filtered traces were also analyzed by Fourier analysis (Hamming) using Clampfit 9.2. […]
# [2] = system: KAR-mediated EPSCs at mossy fiber synapses; experiment: Evoked KAR-mediated EPSCs at recurrent mossy fiber synapses in acute hippocampal slices from pilocarpine-treated mice; assay type: cell-based, mouse; conditions: 1 μM; DGCs from WT pilocarpine-treated mice; data not shown
# Procedure: All experiments were approved by the Institut National de la Santé et de la Recherche Médicale animal care and use committee of May 29, 2001 (2001-464) and the European community council directive of Nov. 24, 1986 (86/609/EEC). Mice (FVB/N background) had access to food and water ad libitum and were housed under a 12 h light/dark cycle at 22-24° C. Male GluK2−/− and WT mice (P60-80) were given scopolamine (1 mg/kg) subcutaneously (s.c.) 15 minutes prior to s.c. administration of pilocarpine (200-600 mg/kg). A ramp protocol was used whereby animals were given an initial dose of 200 mg/kg followed by half-doses every 30 minutes until seizures appeared. […] Diazepam (10 mg/kg) was administered 45 minutes after onset of SE. […]
# Cultured or acute slices were individually transferred to a recording chamber maintained at 30-32° C. and continuously perfused (2 ml/min) with oxygenated normal or adapted ACSF containing 5 μM gabazine. […] Signals were analyzed off-line using Clampfit 9.2 (PClamp) and MiniAnalysis 6.0.1 (Synaptosoft, Decatur, Ga.). In organotypic slices, spontaneous EPSCs were recorded at the reversal potential for GABAergic currents (Vh=−70 mV). To characterize the nature and kinetic properties of fast and slow events, miniature EPSCs (mEPSCs) evoked in Sr2+ conditions (external Ca2+ was substituted with 1.2 mM Sr2+) were recorded in DGCs from GluK2−/− and WT slices. […]
# [3] = slices from WT mice, 10 μM SYM2081 or 5 μM UBP310
# T1 sequence (P39087 32-908): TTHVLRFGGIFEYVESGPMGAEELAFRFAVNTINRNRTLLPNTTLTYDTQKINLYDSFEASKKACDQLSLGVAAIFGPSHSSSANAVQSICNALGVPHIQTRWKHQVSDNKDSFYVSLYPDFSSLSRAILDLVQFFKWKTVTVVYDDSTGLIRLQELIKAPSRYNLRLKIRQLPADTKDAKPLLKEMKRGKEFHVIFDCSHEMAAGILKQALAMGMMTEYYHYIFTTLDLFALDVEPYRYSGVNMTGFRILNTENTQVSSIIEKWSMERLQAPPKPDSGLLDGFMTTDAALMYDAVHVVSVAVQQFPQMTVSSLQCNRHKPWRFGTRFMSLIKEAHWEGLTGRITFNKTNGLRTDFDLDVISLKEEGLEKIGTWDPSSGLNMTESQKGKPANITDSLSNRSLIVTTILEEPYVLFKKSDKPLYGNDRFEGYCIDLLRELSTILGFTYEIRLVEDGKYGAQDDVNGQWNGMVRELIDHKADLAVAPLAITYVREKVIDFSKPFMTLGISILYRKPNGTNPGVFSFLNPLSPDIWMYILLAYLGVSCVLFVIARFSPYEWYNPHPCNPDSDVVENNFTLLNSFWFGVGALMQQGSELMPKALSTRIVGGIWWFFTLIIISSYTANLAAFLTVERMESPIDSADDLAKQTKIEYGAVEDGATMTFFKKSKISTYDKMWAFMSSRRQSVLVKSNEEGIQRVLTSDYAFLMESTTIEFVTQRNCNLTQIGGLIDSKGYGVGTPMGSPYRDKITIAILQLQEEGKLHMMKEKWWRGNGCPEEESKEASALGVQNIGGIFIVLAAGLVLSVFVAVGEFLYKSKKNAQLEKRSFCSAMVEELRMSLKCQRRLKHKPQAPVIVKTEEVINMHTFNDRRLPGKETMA
# T1 sequence (Q61626 15-979): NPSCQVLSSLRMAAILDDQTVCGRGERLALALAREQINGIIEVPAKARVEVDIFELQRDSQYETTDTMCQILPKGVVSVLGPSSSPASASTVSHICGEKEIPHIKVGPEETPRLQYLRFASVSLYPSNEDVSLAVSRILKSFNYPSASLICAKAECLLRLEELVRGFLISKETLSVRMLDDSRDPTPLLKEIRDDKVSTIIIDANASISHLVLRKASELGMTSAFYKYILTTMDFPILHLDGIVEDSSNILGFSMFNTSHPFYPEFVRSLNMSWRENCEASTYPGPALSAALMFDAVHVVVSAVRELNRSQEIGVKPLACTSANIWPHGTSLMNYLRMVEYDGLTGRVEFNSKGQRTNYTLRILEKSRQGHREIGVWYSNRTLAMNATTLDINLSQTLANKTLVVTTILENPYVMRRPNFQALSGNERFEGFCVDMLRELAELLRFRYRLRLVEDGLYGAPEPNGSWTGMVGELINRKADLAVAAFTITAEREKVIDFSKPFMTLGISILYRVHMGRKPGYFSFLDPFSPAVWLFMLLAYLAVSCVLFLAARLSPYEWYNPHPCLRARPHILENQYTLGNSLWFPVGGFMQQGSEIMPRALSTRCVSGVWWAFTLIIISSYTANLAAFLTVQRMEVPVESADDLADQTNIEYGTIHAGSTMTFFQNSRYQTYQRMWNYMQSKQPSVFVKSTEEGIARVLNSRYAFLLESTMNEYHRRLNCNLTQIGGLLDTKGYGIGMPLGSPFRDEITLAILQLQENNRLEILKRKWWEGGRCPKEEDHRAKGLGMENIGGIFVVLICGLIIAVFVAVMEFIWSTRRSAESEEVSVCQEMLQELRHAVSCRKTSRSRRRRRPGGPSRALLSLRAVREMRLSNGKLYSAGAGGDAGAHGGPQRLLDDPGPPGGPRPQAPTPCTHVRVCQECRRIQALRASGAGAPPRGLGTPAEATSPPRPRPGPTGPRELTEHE
compound,measurement,setting,value
"NS(=O)(=O)c1cc2c(cc1Cl)NC(C1CC3C=CC1C3)NS2(=O)=O (stereo not drawn) [CTZ, cyclothiazide]",recovery of reduced interictal-like activity in GluK2-/- slices,"[1]; GluK2-/- slices, bath application",could be recovered
"C[C@H](C[C@H](N)C(=O)O)C(=O)O [SYM2081, (2S,4R)-4-Methylglutamate]",alteration of the PD phase (power of paroxysmal discharge),[1]; [3],No significant alteration
same,reduction of power of the bursts in the late MB phase,[1]; [3],68%
same,reduction of frequency of interictal-like activity,"[1]; slices from WT mice, 10 μM SYM2081 or 5 μM UBP310, 5 mM K+ ACSF, 5 μM gabazine",47%
same,frequency of interictal-like activity,"[1]; slices from WT mice, 10 μM SYM2081 or 5 μM UBP310, without antagonist 3.2±0.4, mean±SEM",1.69±0.3 events/min
same,effect on KAR-mediated mEPSCs,KARs,abolished
CNC(=O)N1N=C(c2ccc(N)cc2)c2cc3c(cc2CC1C)OCO3 (stereo not drawn) [GYKI53655],block of remaining fast EPSCs,AMPARs,fully blocked
same,effect on KAR-mediated mEPSCs,"KARs; WT cultured slices, SYM2081 10 μM, UBP310 5 μM, Sr2+ conditions, 5 μM gabazine, 40 μM D-APV",insensitive
N[C@H](C(=O)O)C1[C@@H](C(=O)O)[C@@H]1C(=O)O (stereo partly drawn) [DCGIV],inhibition of KAR-mediated EPSCs,[2],84%
